{
  "source": "patent US20060128792A1",
  "about": "“Deguelin as a chemopreventive agent for lung cancer” (priority 2002, published 2006)",
  "key": {"[1]": {"test_system": "Cal1", "assay": "MTT assay, growth inhibition by deguelin or deguelin derivatives", "assay_type": "cell-based", "conditions": "3 days"}, "[2]": {"test_system": "H1299 and squamous HBE cells", "assay": "Apoptosis by flow cytometry (FACS)", "assay_type": "cell-based", "conditions": "10^−7 M deguelin, by day 2 or day 3", "protocol": "Apoptosis assay. Normal, premalignant, and malignant HBE cells were exposed to v various doses of deguelin for 3 days. […] Both adherent and floating cells were combined for the assessment of apoptosis using the APO-BRDU staining kit (Phoenix Flow Systems, San Diego, Calif.). Briefly, floating and attached cells dispersed with trypsin-EDTA were pelleted, washed, and fixed by 1% paraformaldehyde followed by 70% ethanol. The fixed cells were washed and incubated with DNA-labeling solution containing terminal deoxynucleotidyl transferase (TdT) reaction buffer, TdT enzyme, and bromodeoxyuridine triphosphate (Br-dUTP). Cells were rinsed, resuspended with fluorescein-PRB-I antibody solution, and analyzed by flow cytometry in the presence of PI/RNase solution. […] A dual display of DNA area (linear red fluorescence) and Br-dUTP incorporation (FITC-PRB-1) was used to determine the percentage of apoptotic cells.\nThe apoptotic effect of deguelin was further assessed in HBE cells. […] Apoptosis was analyzed by flow cytometry as described above. […] To confirm the apoptotic activity in these cells, bax and bcl-2 expression were analyzed by western blotting. […] Thus, it was determined that deguelin increases bax expression thereby inducing the apoptotic activity in lung cancer cells."}, "[3]": {"test_system": "H1299 NSCLC cells", "assay": "Sensitization to chemotherapeutic agents and irradiation, MTT analysis", "assay_type": "cell-based", "conditions": "deguelin 100 nM 2 days; 10 nM paclitaxel, 50 nM doxorubicin or 4Gy irradiation for 1 day", "protocol": "FIG. 10. […] Results are expressed relative to the density of untreated cells. Bars, means±SD of a representative experiment done in six identical wells from five independently performed experiments.\nAdditional studies were conducted to determine whether deguelin can sensitize cells resistant to a chemotherapeutic agent. H1299 NSCLC cells were incubated with deguelin (100 nM) for 2 days."}, "[4]": {"test_system": "bFGF-induced angiogenesis", "assay": "Matrigel plug assay, bFGF-induced angiogenesis", "assay_type": "in vivo, nude mice", "conditions": "5 nmole deguelin plus bFGF, seven days", "protocol": "Inhibition of angiogenesis by deguelin was also evaluated using the Matrigel™ plug assay, an established in vivo angiogenesis model, using nude mice. Matrigel alone was used as a negative control, 100 ng/ml bFGF and 72 units/ml heparin in a vehicle of 0.1% BSA/PBS (bFGF) for a positive control, 5 nmole deguelin alone, and 5 nmole deguelin plus bFGF were included. Seven days after injection, mice were sacrificed. […] 1, 1 and 10 μM concentrations of deguelin in these cells. All of these findings indicated the anti-angiogenic activity of deguelin."}, "[5]": {"test_system": "H322", "assay": "MTT assay, growth inhibition by deguelin or deguelin derivatives", "assay_type": "cell-based", "conditions": "H322, 3 days"}, "[6]": {"test_system": "premalignant (1799, 1198) and malignant (1170) HBE cell lines", "assay": "MTT assay, growth of premalignant and malignant HBE cell lines", "assay_type": "cell-based", "conditions": "HBE, 72 h, read-out: IC50, growth of premalignant and malignant HBE cell lines", "excerpt": "Cells and Cell Cultures. […] Tumors developed 6 months later. […] (Klein-Szanto et al., 1992)."}, "[7]": {"test_system": "PI3K", "assay": "PI3K assay (lipid kinase assay on immunoprecipitate of treated cells)", "assay_type": "cell-based", "conditions": "1799 cells, 10^−7 M deguelin, 1 day", "protocol": "PI3K Assay. 1799 cells cultured in KSFM containing 10^−7 M deguelin for different time periods were lysed in lysis buffer. PI3K was immunoprecipitated from 500 μg of cellular protein using pan-anti-p85 antibody (Upstate Biotechnology, Waltham, Mass.), which coprecipitates the p110 catalytic subunit of PI3K, and subsequent lipid kinase assay was performed as described previously (Sibilia et al., 2000). Briefly, the mixture was incubated with gentle rocking at 4° C. for 12 h, 10 mg of protein A-sepharose (Amersham Pharmacia Biotech) were added, and the incubation was continued for another 2 h. The immunoprecipitates were washed, in tandem, three times with lysis buffer, twice with 0.1 M Tris/HCl, pH 7.5, containing 0.5 M LiCl, and 10 μM sodium vanadate, and twice with 10 mM Tris/HCl, pH 7.5, containing 100 MM NaCl, 10 μM sodium vanadate, and 1 mM EDTA. Adequate amounts of the washed antibody conjugates, in 10 μl, were added to 80 μl of 30 mM Hepes, pH 7.5, containing 125 μM ATP, 10 μCi of [α-^32P] ATP, and 6.25 mM MgCl2, and the reaction was initiated by adding 20 μg of bovine brain extract (Type 1; Sigma) suspended in 10 μl of 30 mM Hepes, pH 7.5. […] The autoradiograms were scanned by a Photodyne image system and quantified using the NIH Image program (version 1.59)."}, "[8]": {"test_system": "1799 cells", "assay": "Cell cycle analysis by flow cytometry (propidium iodide)", "assay_type": "cell-based", "conditions": "3 days", "protocol": "(§1) Cell Cycle Analysis. Cells were plated on 10-cm dishes 1 day before treatment. After treatment with deguelin for 3 days, floating and adherent cells were harvested by trypsinization, fixed with 1% paraformaldehyde and 70% ethanol, stained with propidium iodide PI), and subjected to flow cytomnetric analysis to determine the percentages of cells in specific phases of the cell cycle (G1, S, and G2/M) as described previously (Sun et al., 1997)."}, "[9]": {"test_system": "NHBE cells", "assay": "Cell cycle analysis by flow cytometry (propidium iodide)", "assay_type": "cell-based", "conditions": "3 days", "protocol": "as §1"}},
  "note": "pIC50: −log10 of the molar value. Several values for one entry are separate records, joined by “and”; a condition that tells them apart may be missing. Identical values can stand only once.",
  "data": [
    {"smiles": "COc1cc2c(cc1OC)[C@@H]1C(=O)c3ccc4c(c3O[C@@H]1CO2)C=CC(C)(C)O4", "note": "[Deguelin]", "values": [
      {"measurement": "Avg. % con", "setting": "[1]; deguelin 10^−6M", "value": 0.54, "unit": "% con"},
      {"measurement": "MTT value, mean of replicates (unheaded line)", "setting": "[1]; deguelin 10^−6M", "value": 0.132},
      {"measurement": "MTT value, replicate (unheaded line)", "setting": "[1]; deguelin 10^−6M", "value": "0.13 and 0.128 and 0.138"},
      {"measurement": "Avg. % con", "setting": "[1]; deguelin 10^−8M", "value": 0.88, "unit": "% con"},
      {"measurement": "MTT value, mean of replicates (unheaded line)", "setting": "[1]; deguelin 10^−8M", "value": 0.214},
      {"measurement": "MTT value, replicate (unheaded line)", "setting": "[1]; deguelin 10^−8M", "value": "0.204 and 0.221 and 0.216"},
      {"measurement": "Avg. % con", "setting": "[1]; deguelin 10^−10M", "value": 1.16, "unit": "% con"},
      {"measurement": "MTT value, mean of replicates (unheaded line)", "setting": "[1]; deguelin 10^−10M", "value": 0.281},
      {"measurement": "MTT value, replicate (unheaded line)", "setting": "[1]; deguelin 10^−10M", "value": "0.29 and 0.294 and 0.26"},
      {"measurement": "Avg. % con", "setting": "[1]; deguelin 10^−12M", "value": 1.30, "unit": "% con"},
      {"measurement": "MTT value, mean of replicates (unheaded line)", "setting": "[1]; deguelin 10^−12M", "value": 0.317},
      {"measurement": "MTT value, replicate (unheaded line)", "setting": "[1]; deguelin 10^−12M", "value": "0.305 and 0.328 and 0.319"},
      {"measurement": "apoptosis (flow cytometry)", "setting": "[2]", "value": "≥ 60", "unit": "%"},
      {"measurement": "sensitization to chemotherapeutic agents", "setting": "[3]", "value": "sensitizes cancer cells to chemotherapeutic agents"},
      {"measurement": "bFGF-induced angiogenesis in Matrigel plugs", "setting": "[4]", "value": "markedly inhibit"},
      {"measurement": "Avg. % con", "setting": "[5]; deguelin 10^−6M", "value": 0.49, "unit": "% con"},
      {"measurement": "MTT value, mean of replicates (unheaded line)", "setting": "[5]; deguelin 10^−6M", "value": 0.094},
      {"measurement": "MTT value, replicate (unheaded line)", "setting": "[5]; deguelin 10^−6M", "value": "0.096 and 0.087 and 0.1"},
      {"measurement": "Avg. % con", "setting": "[5]; deguelin 10^−8M", "value": 0.89, "unit": "% con"},
      {"measurement": "MTT value, mean of replicates (unheaded line)", "setting": "[5]; deguelin 10^−8M", "value": 0.173},
      {"measurement": "MTT value, replicate (unheaded line)", "setting": "[5]; deguelin 10^−8M", "value": "0.172 (2×) and 0.174"},
      {"measurement": "Avg. % con", "setting": "[5]; deguelin 10^−10M", "value": 0.84, "unit": "% con"},
      {"measurement": "MTT value, mean of replicates (unheaded line)", "setting": "[5]; deguelin 10^−10M", "value": 0.163},
      {"measurement": "MTT value, replicate (unheaded line)", "setting": "[5]; deguelin 10^−10M", "value": "0.153 and 0.16 and 0.177"},
      {"measurement": "Avg. % con", "setting": "[5]; deguelin 10^−12M", "value": 0.86, "unit": "% con"},
      {"measurement": "MTT value, mean of replicates (unheaded line)", "setting": "[5]; deguelin 10^−12M", "value": 0.166},
      {"measurement": "MTT value, replicate (unheaded line)", "setting": "[5]; deguelin 10^−12M", "value": "0.168 and 0.16 and 0.17"},
      {"measurement": "pIC50", "setting": "[6]", "value": "> 9.00"},
      {"measurement": "PI3K activity (lipid kinase assay)", "setting": "[7]", "value": "decreased"},
      {"measurement": "1799 cells accumulated at the G2/M phase", "setting": "[8]; 10^−7 M deguelin", "value": 40.2, "unit": "%"},
      {"measurement": "1799 cells accumulated at the G2/M phase", "setting": "[8]; 10^−8 M deguelin", "value": 17.3, "unit": "%"},
      {"measurement": "change in NHBE cell cycle", "setting": "[9]", "value": "did not induce detectable change"}
    ]}
  ]
}
